The test system of data set [1] is Trypanosoma brucei rhodesiense. As to the kind of experiment: […] activity against Trypanosoma brucei rhodesiense Wellcome CT infected in ICR/HA mouse assessed as curated mouse at 212 mg/kg, sc treated within 2 hrs of parasite infection measured up to 30 days. Type of data set: functional, organism-based. More on the design: dose 212 mg/kg.
Data set [2] deals with Trypanosoma brucei rhodesiense. The experiment in a line: […] activity against Trypanosoma brucei rhodesiense Wellcome CT infected in ICR/HA mouse assessed as curated mouse at 424 mg/kg, po treated within 2 hrs of parasite infection measured up to 30 days. Type of data set: functional, organism-based. More on the design: dose 424 mg/kg.
The subject of data set [3] is Mus musculus. The experiment in a line: Toxicity in Trypanosoma brucei rhodesiense Wellcome CT infected ICR/HA mouse assessed as mortality at 424 mg/kg, sc treated within 2 hrs of parasite infection measured up to 30 days. Type of data set: organism-based. Particulars: in vivo. More on the design: dose 424 mg/kg, route subcutaneous.
Data set [4] has as its system Trypanosoma brucei rhodesiense. As to the kind of experiment: […] activity against Trypanosoma brucei rhodesiense Wellcome CT infected in ICR/HA mouse assessed as curated mouse at 106 mg/kg, sc treated within 2 hrs of parasite infection measured up to 30 days. Type of data set: functional, organism-based. Details: dose 106 mg/kg.
For data set [5], the system named is Trypanosoma brucei rhodesiense. As to the kind of experiment: […] activity against Trypanosoma brucei rhodesiense Wellcome CT infected in ICR/HA mouse assessed as curated mouse at 424 mg/kg, sc treated within 2 hrs of parasite infection measured up to 30 days. Details: dose 424 mg/kg. Type of data set: functional, organism-based.
Data set [6] concerns Trypanosoma brucei rhodesiense. The experiment in a line: […] activity against Trypanosoma brucei rhodesiense Wellcome CT infected in ICR/HA mouse assessed as curated mouse at 26.5 mg/kg, sc treated within 2 hrs of parasite infection measured up to 30 days. Type of data set: functional.
Data set [7] concerns Mus musculus. The experiment in a line: Toxicity in Trypanosoma brucei rhodesiense Wellcome CT infected ICR/HA mouse assessed as mortality at 212 mg/kg, sc treated within 2 hrs of parasite infection measured up to 30 days. Type of data set: organism-based. More on the design: dose 212 mg/kg, route subcutaneous. The settings on record: in vivo.
In data set [8] the test system is Trypanosoma brucei rhodesiense. The experiment in a line: […] activity against Trypanosoma brucei rhodesiense Wellcome CT infected in ICR/HA mouse assessed as curated mouse at 13.3 mg/kg, sc treated within 2 hrs of parasite infection measured up to 30 days. Details: dose 13.3 mg/kg. Type of data set: functional, organism-based.
The test system of data set [9] is Trypanosoma brucei rhodesiense. The experiment in a line: […] activity against Trypanosoma brucei rhodesiense Wellcome CT infected in ICR/HA mouse assessed as curated mouse at 53 mg/kg, po treated within 2 hrs of parasite infection measured up to 30 days. Type of data set: functional, organism-based. Details: dose 53 mg/kg.
In data set [10] the test system is Trypanosoma brucei rhodesiense. As to the kind of experiment: […] activity against Trypanosoma brucei rhodesiense Wellcome CT infected in ICR/HA mouse assessed as curated mouse at 212 mg/kg, po treated within 2 hrs of parasite infection measured up to 30 days. Type of data set: functional, organism-based. Details: dose 212 mg/kg.
Data set [11] deals with Mus musculus. As to the kind of experiment: Toxicity in Trypanosoma brucei rhodesiense Wellcome CT infected ICR/HA mouse assessed as mortality at 212 mg/kg, po treated within 2 hrs of parasite infection measured up to 30 days. The settings on record: in vivo. Details: dose 212 mg/kg, route oral. Type of data set: organism-based.
The test system of data set [12] is Trypanosoma brucei rhodesiense. As to the kind of experiment: […] activity against Trypanosoma brucei rhodesiense Wellcome CT infected in ICR/HA mouse assessed as curated mouse at 26.5 mg/kg, po treated within 2 hrs of parasite infection measured up to 30 days. Type of data set: functional, organism-based. Details: dose 26.5 mg/kg.
For data set [13], the system named is Trypanosoma brucei rhodesiense. As to the kind of experiment: […] activity against Trypanosoma brucei rhodesiense Wellcome CT infected in ICR/HA mouse assessed as curated mouse at 13.3 mg/kg, po treated within 2 hrs of parasite infection measured up to 30 days. Type of data set: functional, organism-based. More on the design: dose 13.3 mg/kg.
For data set [14], the system named is Trypanosoma brucei rhodesiense. As to the kind of experiment: […] activity against Trypanosoma brucei rhodesiense Wellcome CT infected in ICR/HA mouse assessed as curated mouse at 106 mg/kg, po treated within 2 hrs of parasite infection measured up to 30 days. Details: dose 106 mg/kg. Type of data set: functional, organism-based.
For data set [15], the system named is Trypanosoma brucei rhodesiense. As to the kind of experiment: […] activity against Trypanosoma brucei rhodesiense Wellcome CT infected in ICR/HA mouse assessed as curated mouse at 53 mg/kg, sc treated within 2 hrs of parasite infection measured up to 30 days. Type of data set: functional, organism-based. More on the design: dose 53 mg/kg.
Data set [16] has as its system Mus musculus. As to the kind of experiment: Toxicity in Trypanosoma brucei rhodesiense Wellcome CT infected ICR/HA mouse assessed as mortality at 424 mg/kg, po treated within 2 hrs of parasite infection measured up to 30 days. Type of data set: organism-based. More on the design: dose 424 mg/kg, route oral. Particulars: in vivo.
Data set [17] has as its system Trypanosoma brucei rhodesiense. The experiment in a line: […] activity against Trypanosoma brucei rhodesiense Wellcome CT infected in ICR/HA mouse assessed as curated mouse at 6.5 mg/kg, sc treated within 2 hrs of parasite infection measured up to 30 days. Type of data set: functional, organism-based. Details: dose 6.5 mg/kg.

Activity calls are given as the source filed them. The rule behind the calls is not given here.

For `[Br-].c1ccc([P+](c2ccccc2)(c2ccccc2)c2ccccc2)cc1` [TETRAPHENYLPHOSPHONIUM BROMIDE], the result in [1], in data set [2], in data set [4], in data set [5] and in data set [6] was inactive. Moreover, the Activity result in the data set on Mus musculus [3] and in the data set on Mus musculus [7] was “Toxic” in each case.

For the compound `N=C(N)c1ccc(/C=C/c2ccc(C(=N)N)cc2O)cc1` [HYDROXYSTILBAMIDINE], the Activity in [6] (route subcutaneous) is recorded as 71%.

With `CC(C)(C)c1cc(C[P+](c2ccccc2)(c2ccccc2)c2ccccc2)cc(C(C)(C)C)c1O.[Br-]`, the outcome in data set [8], in [1], in [9], in data set [2], in data set [10] and in [4] was inactive. Further, the outcome in [5], in data set [12], in data set [13], in data set [6], in [14] and in [15] was inactive. Besides, the Activity entry with Mus musculus [11] was “Toxic”.

As for `Cc1ccccc1[P+](Cc1ccccc1)(c1ccccc1C)c1ccccc1C.[Cl-]`, the outcome in data set [8], in data set [2], in [4], in [5], in data set [12] and in [13] was inactive. The result in [6] and in data set [14] was inactive. Further, the Activity result with Mus musculus [3] and in the data set on Mus musculus [16] was “Toxic” each time.

Regarding `Cc1ccccc1C[P+](c1ccccc1)(c1ccccc1)c1ccccc1`, the outcome in [8], in [1], in data set [9], in data set [2], in [10] and in [4] was inactive. Further, the result in data set [5], in data set [12], in data set [13], in data set [6], in [14] and in data set [15] was inactive.

Consider `Cc1ccccc1[P+](Cc1ccccc1)(c1ccccc1)c1ccccc1C.[Cl-]`, for which the outcome in [8], in data set [1], in data set [9], in data set [2], in data set [10] and in [5] was inactive. Also, in data set [13], the result was inactive. The Activity entry with Mus musculus [3], in the data set with Mus musculus [11] and with Mus musculus [7] was “Toxic” in each case.

Turning to `COC(=O)c1ccccc1C[P+](c1ccccc1)(c1ccccc1)c1ccccc1`, the result in data set [8] and in data set [6] was inactive.

Regarding `CCCCCCCCCCCC[P+](c1ccccc1)(c1ccccc1)c1ccccc1`, the outcome in data set [1], in data set [2], in data set [4], in data set [5] and in data set [6] was inactive.

Regarding `Cc1ccc(C[P+](c2ccccc2)(c2ccccc2)c2ccccc2)cc1`, the outcome in data set [8], in [1], in [9], in [2], in [10] and in [4] was inactive. Also, the result in data set [5], in data set [17], in data set [12], in [13], in data set [6] and in data set [14] was inactive. Further, the outcome in [15] was inactive.

Consider `Cc1ccccc1C[P+](c1ccccc1)(c1ccccc1)c1ccccc1.[Br-]`, for which the Activity entry in the data set on Mus musculus [3], in the data set on Mus musculus [16] and in the data set with Mus musculus [7] was “Toxic” throughout.

With `Cc1ccc(C[P+](c2ccccc2)(c2ccccc2)c2ccccc2)cc1.[Cl-]`, the Activity result with Mus musculus [3] is on record as “Toxic”; in [6] (route subcutaneous) it was 20%.

Regarding `Cc1ccccc1C[P+](c1ccccc1)(c1ccccc1)c1ccccc1.[Cl-]`, the Activity result with Mus musculus [3] is listed as “Toxic”; in data set [6] (route subcutaneous), 40%; with Mus musculus [7] it was “Toxic”.

In the case of `CCOc1ccc(C[P+](c2ccccc2)(c2ccccc2)c2ccccc2)cc1.[Cl-]`, the result in [8], in data set [1], in [5] and in [6] was inactive. Besides, the Activity entry with Mus musculus [3] and in the data set on Mus musculus [7] was “Toxic” each time.

On to `C=CC[P+](c1ccccc1)(c1ccccc1)c1ccccc1.[Br-]`, for which the result in [8], in [2], in data set [5] and in data set [6] was inactive. Besides, the Activity result in the data set with Mus musculus [3] is “Toxic”.

As for `Clc1ccc(OC[P+](c2ccccc2)(c2ccccc2)c2ccccc2)cc1.[Cl-]`, the outcome in [8], in data set [2], in [5] and in data set [6] was inactive. The Activity result in the data set on Mus musculus [3] was “Toxic”.

For the compound `[I-].c1ccc(CC(c2ccccc2)[P+](c2ccccc2)(c2ccccc2)c2ccccc2)cc1` (stereo not drawn), the outcome in data set [8], in [2], in data set [4], in data set [5] and in [6] was inactive. In addition, the Activity result in the data set with Mus musculus [3] is reported as “Toxic”.

Turning to `Cc1cccc([P+](Cc2ccccc2)(c2cccc(C)c2)c2cccc(C)c2)c1.[Cl-]`, the outcome in [8], in [9], in [4], in [5], in data set [12] and in data set [13] was inactive. Also, the outcome in data set [14] was inactive. Also, the Activity entry with Mus musculus [3] is “Toxic”.

Take `Clc1ccccc1C[P+](c1ccccc1)(c1ccccc1)c1ccccc1.[Cl-]`: the result in data set [8], in data set [1], in [9], in data set [2], in data set [10] and in [5] was inactive. Besides, the result in data set [12], in data set [13] and in data set [14] was inactive. Moreover, the Activity result in the data set with Mus musculus [3], in the data set with Mus musculus [16], with Mus musculus [11] and in the data set on Mus musculus [7] was “Toxic” in each case.

As for `[Br-].c1ccc([P+](Cc2cccc3cccnc23)(c2ccccc2)c2ccccc2)cc1`, the outcome in data set [8], in data set [5], in data set [6] and in data set [15] was inactive. Moreover, the Activity result with Mus musculus [3] is listed as “Toxic”.

As to `Cc1ccc(C[P+](c2ccccc2)(c2ccccc2)c2ccccc2)cc1.[Br-]`, the Activity result with Mus musculus [3], in the data set with Mus musculus [16], with Mus musculus [11] and in the data set with Mus musculus [7] was “Toxic” throughout.

The values above are taken from ChEMBL document CHEMBL3228036, “A new chemical series active against African trypanosomes: benzyltriphenylphosphonium salts” (J Med Chem, 1979).
